{"source": "patent EP3255433A1", "about": "“METHODS USING BLM AS A MARKER OF MULTIPLE MYELOMA” (priority 2016, dated 2017)", "key": {"[1]": {"test_system": "primary myeloma cells of patients", "assay": "Cytotoxicity on primary myeloma cells of patients (CD138 flow cytometry)", "assay_type": "cell-based, human", "settings": "4 days, IL-6 (1 ng/mL), co-cultured with bone marrow environment, n=7", "excerpt": "(§1) • Figure 1: BLM expression in normal and malignant plasma cells. BLM expression in normal BMPCs (N = 5), in MM cells of patients with intramedullary MM (N = 206) and in HMCLs (N = 26). Ordinate : BLM expression, as expressed in Affimetrix signal arbitrary units. Abscissa : from left to right : BMPCs (n=5); MMCs (n=206) and HMCLs (n=26). • Figure 2: BLM gene expression in the 7 MM molecular subgroups of the TT2-cohort. PR = proliferation, LB = low bone disease, MS = MMSET, HY = hyperdiploid, CD1 = cyclin D1/D3, CD2 = cyclin D1/D3, MF = MAF. * indicates higher score value compared to all other groups with P<0.05. Ordinate : BLM expression, as expressed in Affimetrix signal arbitrary units. Abscissa : from left to right: PR, LB, MS, HY, CD1, CD2 and MF . • Figure 3: BLM expression in MMCs could predict for shorter overall and event free survival in independent cohorts of patients. • Figure 3A : Patients of the HM cohort (n = 206) were ranked according to increasing BLM expression and a maximum difference in overall survival (OS) was obtained using the Maxstat R function. Upper curve : BLM^Low; Lower curve : BLM^High. Ordinate : Overall Survival (OS). Abscissa : Days from diagnosis. • Figure 3B : BLM expression is also associated with a shorter event free survival (EFS) in the HM cohort (n = 206). Upper curve : BLM^Low; Lower curve : BLM^High. Ordinate : Effective Survival (EFS)). […] At day 4 of culture, the viability was assessed by CellTiter-Glo® Luminescent Cell Viability Assay. […] Data are mean values ± standard deviation (SD) of five experiments determined on sextuplet culture wells. • Figure 4A : Growth inhibition of a plurality of MM cell lines in the presence of the ML216 BLM inhibitor. Ordinate : cell growth inhibition, as expressed as percent of control cells without ML216 :Cell lines tested : □ XG1 cells; ◊ XG7 cells; ○ XG12 cells; ◆XG25 cells; ● XG19 cells; + LP1 cells. […] At day 4 of culture, the viability and total cell counts were assessed and the percentage of CD138 viable plasma and non-myeloma cells was determined by flow cytometry. […]"}, "[2]": {"test_system": "human myeloma cell lines (HMCL)", "assay": "Cell growth inhibition of human myeloma cell lines (CellTiter-Glo Luminescent Cell Viability Assay)", "assay_type": "cell-based", "settings": "96 h, 4 days culture, 2 ng/ml interleukin six", "excerpt": "as §1, with “units.” for “units. Abscissa : from left to right: PR, LB, MS, HY, CD1, CD2 and MF . • Figure 3: BLM expression in MMCs could predict for shorter overall and event free survival in independent cohorts of patients. • Figure 3A : Patients of the HM cohort (n = 206) were ranked according to increasing BLM expression and a maximum difference in overall survival (OS) was obtained using the Maxstat R function. Upper curve : BLM^Low; Lower curve : BLM^High. Ordinate : Overall Survival (OS). Abscissa : Days from diagnosis. • Figure 3B : BLM expression is also associated with a shorter event free survival (EFS) in the HM cohort (n = 206). Upper curve : BLM^Low; Lower curve : BLM^High. Ordinate : Effective Survival (EFS)).”"}}, "note": "Like-named read-outs stand apart in the source and are kept apart here."}
{"smiles": "O=C(Nc1ccc(F)c(C(F)(F)F)c1)Nc1nnc(-c2ccncc2)s1", "note": "[ML216]", "values": [{"measurement": "reduction of the median number of viable myeloma cells", "setting": "[1]; 3 µM, P = 0.001", "value": 54, "unit": "%"}, {"measurement": "reduction of the median number of viable myeloma cells", "setting": "[1]; 6 µM, P < 0.001", "value": 60, "unit": "%"}, {"measurement": "reduction of the median number of viable myeloma cells", "setting": "[1]; 10 µM, P <0.001", "value": 74, "unit": "%"}, {"measurement": "IC50", "setting": "[2]; median over 6 HMCL (XG-1, XG-7, XG-12, XG-25, XG-19, LP1), read-out: median IC50", "value": 4.1, "unit": "µM"}, {"measurement": "IC50", "setting": "[2]; range over 6 HMCL, read-out: IC50 (range)", "value": "1.2 to 30", "unit": "µM"}]}
